Source: the NIST ThermoML archive (doi:10.1021/acs.jced.8b00438)

Test: xn = mol fraction of the nth substance listed
Settings: 100 kPa, Liquid; for viscosity: Falling or rolling sphere viscometry; for mass density: Vibrating tube method

C1CCC(C2CCCCC2)CC1 [1,1'-bicyclohexyl] + CCCCO
Settings | mass density [kg/m3] | viscosity [mPa·s]
293.15 K, x1 = 0.1007 | 823.66 | 2.853
293.15 K, x1 = 0.2009 | 835.23 | 2.878
293.15 K, x1 = 0.3021 | 845.04 | 2.902
293.15 K, x1 = 0.4007 | 853.19 | 2.957
293.15 K, x1 = 0.5038 | 860.51 | 3.002
293.15 K, x1 = 0.5992 | 866.48 | 3.096
293.15 K, x1 = 0.7006 | 872.11 | 3.227
293.15 K, x1 = 0.7983 | 877.03 | 3.418
293.15 K, x1 = 0.8835 | 880.86 | 3.575
293.15 K, x1 = 1 | 886.05 | 4.003
298.15 K, x1 = 0.1007 | 819.86 | 2.507
298.15 K, x1 = 0.2009 | 831.42 | 2.527
298.15 K, x1 = 0.3021 | 841.24 | 2.548
298.15 K, x1 = 0.4007 | 849.39 | 2.603
298.15 K, x1 = 0.5038 | 856.73 | 2.648
298.15 K, x1 = 0.5992 | 862.71 | 2.734
298.15 K, x1 = 0.7006 | 868.37 | 2.851
298.15 K, x1 = 0.7983 | 873.33 | 3.02
298.15 K, x1 = 0.8835 | 877.19 | 3.158
298.15 K, x1 = 1 | 882.44 | 3.53
303.15 K, x1 = 0.1007 | 816.02 | 2.214
303.15 K, x1 = 0.2009 | 827.58 | 2.232
303.15 K, x1 = 0.3021 | 837.4 | 2.254
303.15 K, x1 = 0.4007 | 845.56 | 2.306
303.15 K, x1 = 0.5038 | 852.92 | 2.353
303.15 K, x1 = 0.5992 | 858.93 | 2.431
303.15 K, x1 = 0.7006 | 864.61 | 2.539
303.15 K, x1 = 0.7983 | 869.6 | 2.689
303.15 K, x1 = 0.8835 | 873.49 | 2.807
303.15 K, x1 = 1 | 878.84 | 3.137
308.15 K, x1 = 0.1007 | 812.14 | 1.963
308.15 K, x1 = 0.2009 | 823.71 | 1.982
308.15 K, x1 = 0.3021 | 833.53 | 2.006
308.15 K, x1 = 0.4007 | 841.7 | 2.054
308.15 K, x1 = 0.5038 | 849.08 | 2.102
308.15 K, x1 = 0.5992 | 855.12 | 2.179
308.15 K, x1 = 0.7006 | 860.84 | 2.273
308.15 K, x1 = 0.7983 | 865.87 | 2.411
308.15 K, x1 = 0.8835 | 869.8 | 2.513
308.15 K, x1 = 1 | 875.25 | 2.81
313.15 K, x1 = 0.1007 | 808.22 | 1.749
313.15 K, x1 = 0.2009 | 819.81 | 1.767
313.15 K, x1 = 0.3021 | 829.63 | 1.793
313.15 K, x1 = 0.4007 | 837.81 | 1.84
313.15 K, x1 = 0.5038 | 845.22 | 1.881
313.15 K, x1 = 0.5992 | 851.3 | 1.957
313.15 K, x1 = 0.7006 | 857.05 | 2.048
313.15 K, x1 = 0.7983 | 862.13 | 2.17
313.15 K, x1 = 0.8835 | 866.09 | 2.262
313.15 K, x1 = 1 | 871.66 | 2.532
318.15 K, x1 = 0.1007 | 804.27 | 1.563
318.15 K, x1 = 0.2009 | 815.86 | 1.582
318.15 K, x1 = 0.3021 | 825.69 | 1.61
318.15 K, x1 = 0.4007 | 833.9 | 1.656
318.15 K, x1 = 0.5038 | 841.34 | 1.704
318.15 K, x1 = 0.5992 | 847.45 | 1.769
318.15 K, x1 = 0.7006 | 853.25 | 1.853
318.15 K, x1 = 0.7983 | 858.37 | 1.966
318.15 K, x1 = 0.8835 | 862.38 | 2.047
318.15 K, x1 = 1 | 868.08 | 2.296
323.15 K, x1 = 0.1007 | 800.27 | 1.402
323.15 K, x1 = 0.2009 | 811.87 | 1.423
323.15 K, x1 = 0.3021 | 821.71 | 1.452
323.15 K, x1 = 0.4007 | 829.95 | 1.498
323.15 K, x1 = 0.5038 | 837.43 | 1.545
323.15 K, x1 = 0.5992 | 843.58 | 1.608
323.15 K, x1 = 0.7006 | 849.43 | 1.685
323.15 K, x1 = 0.7983 | 854.6 | 1.789
323.15 K, x1 = 0.8835 | 858.66 | 1.863
323.15 K, x1 = 1 | 864.5 | 2.092
328.15 K, x1 = 0.1007 | 796.21 | 1.263
328.15 K, x1 = 0.2009 | 807.82 | 1.285
328.15 K, x1 = 0.3021 | 817.69 | 1.315
328.15 K, x1 = 0.4007 | 825.97 | 1.36
328.15 K, x1 = 0.5038 | 833.49 | 1.407
328.15 K, x1 = 0.5992 | 839.69 | 1.466
328.15 K, x1 = 0.7006 | 845.59 | 1.54
328.15 K, x1 = 0.7983 | 850.82 | 1.635
328.15 K, x1 = 0.8835 | 854.93 | 1.702
328.15 K, x1 = 1 | 860.93 | 1.915
333.15 K, x1 = 0.1007 | 792.1 | 1.141
333.15 K, x1 = 0.2009 | 803.73 | 1.164
333.15 K, x1 = 0.3021 | 813.63 | 1.196
333.15 K, x1 = 0.4007 | 821.94 | 1.24
333.15 K, x1 = 0.5038 | 829.52 | 1.286
333.15 K, x1 = 0.5992 | 835.77 | 1.342
333.15 K, x1 = 0.7006 | 841.73 | 1.411
333.15 K, x1 = 0.7983 | 847.02 | 1.499
333.15 K, x1 = 0.8835 | 851.2 | 1.562
333.15 K, x1 = 1 | 857.35 | 1.762
